Reference: ChEMBL document CHEMBL1146614, “High-affinity thrombin receptor (PAR-1) ligands: a new generation of indole-based peptide mimetic antagonists with a basic amine at the C-terminus” (Bioorg Med Chem Lett, 2003)
Each block holds one compound with its values, some of them ahead of it.

Experiments:
[1] = Ability to block U-46,619 (0.3 uM)-induced platelet aggregation; inactive at a concentration of 50 uM; assay type: functional
[2] = Ability to block TRAP-6 (2 uM)-induced platelet aggregation; assay type: functional
[3] = Ability to block thrombin (0.15 nM)-induced platelet aggregation; assay type: functional
[4] = target: T1, Proteinase-activated receptor 1 (Homo sapiens, UniProt P25116); experiment: Ability to inhibit the binding of [3H]S-(p-F-Phe)-homoarginine-L-homoarginine-KY-NH2 to thrombin receptor on the membranes of CHRF-288-11 cells
T1 sequence (P25116 whole entry): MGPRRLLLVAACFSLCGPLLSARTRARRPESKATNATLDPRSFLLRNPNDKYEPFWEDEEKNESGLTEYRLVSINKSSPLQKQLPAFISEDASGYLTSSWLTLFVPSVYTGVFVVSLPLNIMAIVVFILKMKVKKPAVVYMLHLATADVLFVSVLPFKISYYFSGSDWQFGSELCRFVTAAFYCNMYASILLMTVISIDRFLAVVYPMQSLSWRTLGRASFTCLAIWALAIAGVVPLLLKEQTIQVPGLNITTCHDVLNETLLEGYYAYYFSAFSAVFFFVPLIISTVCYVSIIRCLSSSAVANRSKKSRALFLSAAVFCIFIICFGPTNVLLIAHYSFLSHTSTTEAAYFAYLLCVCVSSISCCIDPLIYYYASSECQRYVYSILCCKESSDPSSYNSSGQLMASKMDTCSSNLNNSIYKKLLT

[5] = Ability to block collagen (3 ug/mL)-induced platelet aggregation; assay type: functional
[6] = Ability to block U-46,619 (0.3 uM)-induced platelet aggregation; assay type: functional

SMILES: NCC[C@H](NC(=O)[C@H](Cc1ccc(F)c(F)c1)NC(=O)Nc1cccc2c(CN3CCCC3)cn(Cc3c(Cl)cccc3Cl)c12)C(=O)NCCN1CCCC1
IC50 [1]: Not Active
IC50 [2]: 4300 nM
IC50 [3]: 23000 nM
IC50 [4]: 22000 nM

SMILES: CSCC[C@H](NC(=O)[C@H](Cc1ccc(F)c(F)c1)NC(=O)Nc1ccc2c(CN3CCCC3)cn(Cc3c(Cl)cccc3Cl)c2c1)C(=O)NCCN
IC50 [5]: 4700 nM
IC50 [2]: 70 nM
IC50 [3]: 220 nM
IC50 [4]: 25 nM
IC50 [6]: 24000 nM

SMILES: NCC[C@H](NC(=O)[C@H](Cc1ccc(F)c(F)c1)NC(=O)Nc1ccc2c(CN3CCCC3)cn(Cc3c(Cl)cccc3Cl)c2c1)C(=O)NCc1ccccn1
IC50 [5]: 8400 nM
IC50 [2]: 190 nM
IC50 [3]: 1100 nM
IC50 [4]: 330 nM
IC50 [6]: 19800 nM

SMILES: NCC[C@H](NC(=O)[C@H](Cc1ccc(F)c(F)c1)NC(=O)Nc1ccc2c(CN3CCCC3)cn(Cc3c(Cl)cccc3Cl)c2c1)C(=O)NCCc1ccccc1
IC50 [5]: 3000 nM
IC50 [2]: 160 nM
IC50 [3]: 810 nM
IC50 [4]: 120 nM
IC50 [6]: 7600 nM

SMILES: NCC[C@H](NC(=O)[C@H](Cc1ccc(F)c(F)c1)NC(=O)Nc1ccc2c(CN3CCCC3)cn(Cc3c(Cl)cccc3Cl)c2c1)C(=O)NCc1ccco1
IC50 [1]: Not Active
IC50 [5]: 7900 nM
IC50 [2]: 70 nM
IC50 [3]: 780 nM
IC50 [4]: 160 nM

SMILES: NCC[C@H](NC(=O)[C@H](Cc1ccc(F)c(F)c1)NC(=O)Nc1ccc2c(CN3CCCC3)cn(Cc3c(Cl)cccc3Cl)c2c1)C(=O)NCc1ccccc1
IC50 [1]: Not Active
IC50 [2]: 160 nM
IC50 [3]: 340 nM
IC50 [4]: 440 nM

SMILES: NCC[C@H](NC(=O)[C@H](Cc1ccc(F)c(F)c1)NC(=O)Nc1ccc2c(CN3CCCC3)cn(Cc3c(Cl)cccc3Cl)c2c1)C(=O)NCc1cccs1
IC50 [1]: Not Active
IC50 [5]: 7000 nM
IC50 [2]: 160 nM
IC50 [3]: 800 nM
IC50 [4]: 230 nM

SMILES: COc1ccc(CNC(=O)[C@H](CCN)NC(=O)[C@H](Cc2ccc(F)c(F)c2)NC(=O)Nc2ccc3c(CN4CCCC4)cn(Cc4c(Cl)cccc4Cl)c3c2)cc1
IC50 [5]: 6700 nM
IC50 [2]: 100 nM
IC50 [3]: 700 nM
IC50 [4]: 480 nM
IC50 [6]: 6400 nM

SMILES: NCC[C@H](NC(=O)[C@H](Cc1ccc(F)c(F)c1)NC(=O)Nc1cccc2c1c(CN1CCCC1)cn2Cc1c(Cl)cccc1Cl)C(=O)NCCN1CCCC1
IC50 [1]: Not Active
IC50 [2]: 16000 nM
IC50 [3]: 40000 nM

SMILES: NCC[C@H](NC(=O)[C@H](Cc1ccc(F)c(F)c1)NC(=O)Nc1ccc2c(CN3CCCC3)cn(Cc3c(Cl)cccc3Cl)c2c1)C(=O)NCCc1ccccn1
IC50 [5]: 6600 nM
IC50 [2]: 150 nM
IC50 [3]: 880 nM
IC50 [4]: 500 nM
IC50 [6]: 10300 nM

SMILES: NCCCNC(=O)[C@H](Cc1cnc[nH]1)NC(=O)[C@H](Cc1ccc(Cl)cc1)NC(=O)Nc1ccc2c(CN3CCCC3)cn(Cc3c(Cl)cccc3Cl)c2c1
IC50 [5]: 30000 nM
IC50 [2]: 70 nM
IC50 [3]: 410 nM
IC50 [4]: 130 nM
IC50 [6]: 18600 nM

SMILES: NCCNC(=O)[C@H](Cc1cccs1)NC(=O)[C@H](Cc1ccc(F)c(F)c1)NC(=O)Nc1ccc2c(CN3CCCC3)cn(Cc3c(Cl)cccc3Cl)c2c1
IC50 [1]: Not Active
IC50 [5]: 16500 nM
IC50 [2]: 80 nM
IC50 [3]: 270 nM
IC50 [4]: 35 nM

SMILES: CCNCCNC(=O)[C@H](CCN)NC(=O)[C@H](Cc1ccc(F)c(F)c1)NC(=O)Nc1ccc2c(CN3CCCC3)cn(Cc3c(Cl)cccc3Cl)c2c1
IC50 [2]: 130 nM
IC50 [3]: 410 nM
IC50 [4]: 90 nM
IC50 [6]: 13700 nM

The next compounds have a lower IC50 [2] than those just listed; values first:

IC50 [5]: 27000 nM
IC50 [2]: 60 nM
IC50 [3]: 1300 nM
IC50 [4]: 60 nM
IC50 [6]: 18600 nM
SMILES: CSC[C@H](NC(=O)[C@H](Cc1ccc(F)c(F)c1)NC(=O)Nc1ccc2c(CN3CCCC3)cn(Cc3c(Cl)cccc3Cl)c2c1)C(=O)NCCN

IC50 [5]: 16000 nM
IC50 [2]: 60 nM
IC50 [3]: 250 nM
IC50 [4]: 310 nM
IC50 [6]: 22000 nM
SMILES: NCCC[C@H](NC(=O)[C@H](Cc1ccc(F)c(F)c1)NC(=O)Nc1ccc2c(CN3CCCC3)cn(Cc3c(Cl)cccc3Cl)c2c1)C(=O)NCCN1CCCC1

IC50 [1]: Not Active
IC50 [2]: 50 nM
IC50 [3]: 460 nM
SMILES: NCC[C@H](NC(=O)[C@H](Cc1ccc(F)c(F)c1)NC(=O)Nc1ccc2c(CN3CCCC3)cn(Cc3c(Cl)cccc3Cl)c2c1)C(=O)NCCN1CCCC1

IC50 [5]: 11000 nM
IC50 [2]: 50 nM
IC50 [3]: 200 nM
IC50 [4]: 430 nM
IC50 [6]: 17300 nM
SMILES: NCCCNC(=O)[C@H](CCN)NC(=O)[C@H](Cc1ccc(Cl)cc1)NC(=O)Nc1ccc2c(CN3CCCC3)cn(Cc3c(Cl)cccc3Cl)c2c1

IC50 [1]: Not Active
IC50 [2]: 50 nM
IC50 [3]: 130 nM
IC50 [4]: 70 nM
SMILES: NCCNC(=O)[C@H](Cc1ccncc1)NC(=O)[C@H](Cc1ccccc1F)NC(=O)Nc1ccc2c(CN3CCCC3)cn(Cc3c(Cl)cccc3Cl)c2c1
